Reference: paper PMC5799214, “A Novel Mitochondrial Serine O-Acetyltransferase, OpSAT1, Plays a Critical Role in Sulfur Metabolism in the Thermotolerant Methylotrophic Yeast Ogataea parapolymorpha” (Scientific Reports, 2018)

What was measured:
CysE (GST-CysE) = target: T1, CysE (GST-CysE) (Escherichia coli, UniProt P0A9D4); experiment: SAT activity, decrease of OD232 (acetyl-CoA consumption); assay type: biochemical; settings: read-out: % residual activity at 1 μM
T1 construct: template plasmid pCysE
T1 sequence (P0A9D4 2-273): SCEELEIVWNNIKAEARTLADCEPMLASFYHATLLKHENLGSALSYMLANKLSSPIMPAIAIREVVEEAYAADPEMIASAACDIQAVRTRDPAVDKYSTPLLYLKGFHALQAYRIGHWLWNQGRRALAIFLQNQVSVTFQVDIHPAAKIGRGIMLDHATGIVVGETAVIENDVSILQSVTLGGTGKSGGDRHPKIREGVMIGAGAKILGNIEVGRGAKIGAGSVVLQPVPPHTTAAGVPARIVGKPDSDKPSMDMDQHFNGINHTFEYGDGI

OpSat1p (GST-OpSat1p) = target: T2, OpSat1p (GST-OpSat1p) (Ogataea parapolymorpha, UniProt W1Q867); experiment: as above; assay type: biochemical; settings: read-out: concentration of cysteine at 50% inhibition
T2 construct: gene HPODL_02797; alpha/beta hydrolase 1 domain
T2 sequence (W1Q867 2-499): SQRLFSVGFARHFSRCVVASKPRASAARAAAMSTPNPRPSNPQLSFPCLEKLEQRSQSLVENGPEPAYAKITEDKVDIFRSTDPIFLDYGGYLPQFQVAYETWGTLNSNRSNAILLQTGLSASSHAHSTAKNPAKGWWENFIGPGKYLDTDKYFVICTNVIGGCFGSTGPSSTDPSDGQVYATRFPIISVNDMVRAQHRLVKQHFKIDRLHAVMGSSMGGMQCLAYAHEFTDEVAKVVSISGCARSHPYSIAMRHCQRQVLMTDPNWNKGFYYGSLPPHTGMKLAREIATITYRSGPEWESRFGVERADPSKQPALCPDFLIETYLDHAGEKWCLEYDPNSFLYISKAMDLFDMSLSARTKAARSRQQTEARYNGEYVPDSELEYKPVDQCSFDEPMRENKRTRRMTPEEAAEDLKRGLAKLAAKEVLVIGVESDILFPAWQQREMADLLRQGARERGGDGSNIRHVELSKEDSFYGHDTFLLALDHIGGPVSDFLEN

remaining activity at 1 µM (CysE (GST-CysE)): ~40%
IC50 (OpSat1p (GST-OpSat1p)): ~250 µM
Compound: N[C@@H](CS)C(=O)O [L-cysteine]
